The values below come from US9527849B2, “Salt and polymorph of pyrazolopyrimidinone compound, and pharmaceutical composition containing the same, preparation method and use thereof” (TOPHARMAN SHANGHAI CO., LTD., priority 2011, dated 2016).

pIC50: −log10 of the molar value. Entries after “also recorded” stand apart in the source; their conditions may differ. Where a name gives a salt, the structure may show the parent alone. Read-outs that look alike come from different tables or passages of the source.

Broadly, the melting point is the temperature of the solid-liquid transition. Broadly, the solubility is how much of the substance goes into solution per volume. By pIC50 is commonly meant −log10 of the IC50, conventionally taken in molar units.

The nature of data set [1]: Comparison of appearance, characters and odor. In kind it is physicochemical. An excerpt:
The basic compound Z and various salts of compound Z were selected to compare the appearance and characters.

Data set [2] in a line: Hygroscopicity, moisture weight gain in desiccator. It is filed as physicochemical. As to conditions: for Moisture weight gain (%): relative humidity 92.5%, 48 hours, room temperature. The protocol: The hygroscopicities of various salts of compound Z were studied. A certain amount of the sample was placed in a precisely-weighted glass weighing bottle with a stopper to accurately weight. Then the open glass weighing bottle was placed in a desiccator (the saturated potassium nitrate solution was placed at the lower part of the desiccator, the relative humidity was 92.5%) and stood for 48 hours at room temperature. And then the glass weighing bottle was covered with the stopper and weighted again. The absorbent weight can be calculated.

The subject of data set [3] is rats cavernous body pressure/arterial blood pressure (ICP/BP). In words: Erectile dysfunction (ED) efficacy trial in vivo in rats, method of WO2007056955. As to conditions: Dose 10 mg/kg, after the administration.
Data set [4] in a line: Impact factor stability test (high temperature, high humidity, light exposure). It is filed as physicochemical. As to conditions: for chemical stability (in words): high temperature, high humidity. From the text:
The basic compounds of compound Z and the maleate thereof were selected to compare the chemical stability through an impact factor test, and results were shown in Table 8: […]

Data set [5] in a line: Comparison of solubility in water and buffer solutions. It is filed as physicochemical. As to conditions: for solubility (in words): in water and in other solvents; for solubility: thermodynamic from solid. The protocol: The basic compound Z and various salts of compound Z were selected to compare the solubility. Appropriate amount of sample was weighed, placed in glass tubes. The predetermined solvent was added gradually and the extension of clear of the solution was observed. The solvent included the follows: pure water (pH 6.2), hydrochloric acid solution (pH1.0), a standard potassium hydrogen phthalate buffer solution (pH 4.0), and a mixed phosphate buffer solution (pH 6.86).

A further data set concerns the target PDE4. In words: In vitro activity against PDE isoenzyme. In kind it is biochemical. Particulars: for pIC50: PDE4.
Another data set addresses PDE7. In words: In vitro activity against PDE isoenzyme. In kind it is biochemical. As to conditions: for pIC50: PDE7.
The target in another data set is PDE8. In words: In vitro activity against PDE isoenzyme. It is filed as biochemical. As to conditions: for pIC50: PDE8.
In a further data set the target is PDE1. Nature of the data set: In vitro activity against PDE isoenzyme. It is filed as biochemical. Particulars: for pIC50: PDE1.
For the next data set, the target named is PDE9 (Homo sapiens, UniProt O76083). Nature of the data set: In vitro activity against PDE isoenzyme. It is filed as biochemical.
PDE9, sequence (O76083 whole entry): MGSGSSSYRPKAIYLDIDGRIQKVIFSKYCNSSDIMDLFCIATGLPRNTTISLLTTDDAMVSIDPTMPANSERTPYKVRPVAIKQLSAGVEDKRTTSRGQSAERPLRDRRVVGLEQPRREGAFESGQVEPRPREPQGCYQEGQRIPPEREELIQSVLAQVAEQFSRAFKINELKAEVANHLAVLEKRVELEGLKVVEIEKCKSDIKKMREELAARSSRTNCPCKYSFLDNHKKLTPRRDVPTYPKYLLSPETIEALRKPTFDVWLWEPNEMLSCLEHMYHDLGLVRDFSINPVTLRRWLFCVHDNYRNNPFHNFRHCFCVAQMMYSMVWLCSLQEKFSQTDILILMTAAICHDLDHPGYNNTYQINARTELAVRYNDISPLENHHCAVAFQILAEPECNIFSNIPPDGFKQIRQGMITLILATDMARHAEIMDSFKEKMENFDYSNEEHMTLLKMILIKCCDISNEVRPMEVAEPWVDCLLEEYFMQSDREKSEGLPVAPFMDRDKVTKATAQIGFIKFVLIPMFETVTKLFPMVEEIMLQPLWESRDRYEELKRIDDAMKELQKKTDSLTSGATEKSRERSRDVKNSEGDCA
Data set [6] relates to rats with pulmonary arterial hypertension. In words: Pulmonary arterial hypertension (PAH) rats, single intravenous administration. It is filed as in vivo. Particulars: single intravenous administration of 1 mg/kg, FIG. 18. From the text: (§1) The effects of maleate of compound Z on pulmonary artery pressure of pulmonary arterial hypertension rats were studied according to the method described in the reference (J Pharmacol Sci, 111, 235-243 (2009)).

Data set [7] shares this test system. In words: Pulmonary arterial hypertension (PAH) rats, chronic oral administration. In kind it is in vivo. As to conditions: each dose group, FIG. 17.
Source text: as §1

In another data set the target is PDE6. Nature of the data set: In vitro activity against PDE isoenzyme. It is filed as biochemical.
Another data set concerns the target PDE3. Nature of the data set: In vitro activity against PDE isoenzyme. In kind it is biochemical.
In a further data set the target is PDE2 (Homo sapiens, UniProt O00408). In words: In vitro activity against PDE isoenzyme. It is filed as biochemical.
PDE2, sequence (O00408 whole entry): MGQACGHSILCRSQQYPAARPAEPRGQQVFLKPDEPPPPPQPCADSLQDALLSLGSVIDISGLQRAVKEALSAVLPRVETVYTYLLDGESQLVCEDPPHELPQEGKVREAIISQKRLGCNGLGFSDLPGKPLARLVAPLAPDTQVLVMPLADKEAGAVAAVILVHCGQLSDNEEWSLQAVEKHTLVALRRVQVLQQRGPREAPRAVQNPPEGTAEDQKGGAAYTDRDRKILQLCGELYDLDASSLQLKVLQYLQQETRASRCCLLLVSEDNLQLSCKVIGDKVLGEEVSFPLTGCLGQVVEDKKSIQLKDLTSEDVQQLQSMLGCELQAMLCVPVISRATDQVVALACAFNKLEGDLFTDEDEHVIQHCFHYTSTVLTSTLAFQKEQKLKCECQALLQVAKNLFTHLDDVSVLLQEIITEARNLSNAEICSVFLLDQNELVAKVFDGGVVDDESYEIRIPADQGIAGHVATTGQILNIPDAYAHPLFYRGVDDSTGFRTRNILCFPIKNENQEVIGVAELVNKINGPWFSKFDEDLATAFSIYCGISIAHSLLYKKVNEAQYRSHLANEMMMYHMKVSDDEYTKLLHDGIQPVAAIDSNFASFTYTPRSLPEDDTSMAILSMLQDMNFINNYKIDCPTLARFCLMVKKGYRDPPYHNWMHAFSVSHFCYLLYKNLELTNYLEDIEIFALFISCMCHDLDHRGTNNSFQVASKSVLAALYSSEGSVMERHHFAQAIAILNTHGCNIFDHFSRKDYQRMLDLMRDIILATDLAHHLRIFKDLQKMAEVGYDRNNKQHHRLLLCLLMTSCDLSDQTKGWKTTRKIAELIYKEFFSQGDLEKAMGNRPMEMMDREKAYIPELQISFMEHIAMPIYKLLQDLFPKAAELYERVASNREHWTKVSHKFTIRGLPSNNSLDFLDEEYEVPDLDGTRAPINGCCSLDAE
The target in the next data set is PDE5 (Homo sapiens, UniProt O76074). In words: In vitro activity against PDE isoenzyme. In kind it is biochemical.
Data set [8] has as its system cavernous pressure in rats. Nature of the data set: Cavernous pressure in rats induced by electric stimulus to the erectile nerve (ED). Particulars: rat, 2.50-5.00 mg/kg through duodenum; FIG. 19. In kind it is in vivo. An excerpt:
The effect of maleate of compound Z on the cavernous pressure variation in rats induced by the electric stimulus to the erectile nerve was studied according to the method described in the reference (International Journal of Impotence Research (2002) 14, 251-255).

Data set [9] is described as follows: Comparison of salts and crystalline forms (crystal water, static, stability, component, crystalline form). It is filed as physicochemical.
Another data set concerns the target PDE10 (Homo sapiens, UniProt Q9Y233). Nature of the data set: In vitro activity against PDE isoenzyme. In kind it is biochemical.
The target of the next data set is PDE11 (Homo sapiens, UniProt Q9HCR9). Nature of the data set: In vitro activity against PDE isoenzyme. It is filed as biochemical.
PDE11, sequence (Q9HCR9 whole entry): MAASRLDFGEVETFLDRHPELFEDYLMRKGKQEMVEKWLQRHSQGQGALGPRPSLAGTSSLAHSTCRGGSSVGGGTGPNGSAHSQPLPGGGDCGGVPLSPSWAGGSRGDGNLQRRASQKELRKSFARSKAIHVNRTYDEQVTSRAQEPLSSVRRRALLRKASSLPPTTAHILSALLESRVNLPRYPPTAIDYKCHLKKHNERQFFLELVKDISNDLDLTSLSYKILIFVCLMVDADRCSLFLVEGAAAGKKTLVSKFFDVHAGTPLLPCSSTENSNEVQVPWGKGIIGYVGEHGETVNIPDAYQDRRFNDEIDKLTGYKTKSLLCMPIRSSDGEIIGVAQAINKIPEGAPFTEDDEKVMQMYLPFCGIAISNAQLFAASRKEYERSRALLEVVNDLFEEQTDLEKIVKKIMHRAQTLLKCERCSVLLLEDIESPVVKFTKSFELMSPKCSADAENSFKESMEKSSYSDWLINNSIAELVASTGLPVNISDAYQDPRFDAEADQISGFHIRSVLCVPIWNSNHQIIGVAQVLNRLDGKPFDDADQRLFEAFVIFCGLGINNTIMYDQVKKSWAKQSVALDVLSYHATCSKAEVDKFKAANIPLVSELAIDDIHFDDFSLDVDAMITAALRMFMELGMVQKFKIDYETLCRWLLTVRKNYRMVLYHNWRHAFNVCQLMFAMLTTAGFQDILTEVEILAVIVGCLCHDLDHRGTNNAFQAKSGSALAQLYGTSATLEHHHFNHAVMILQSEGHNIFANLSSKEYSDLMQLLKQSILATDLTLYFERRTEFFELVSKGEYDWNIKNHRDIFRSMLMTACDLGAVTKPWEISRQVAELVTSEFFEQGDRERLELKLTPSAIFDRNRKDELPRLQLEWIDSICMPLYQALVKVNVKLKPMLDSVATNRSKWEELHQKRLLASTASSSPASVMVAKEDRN
Where [10] appears, read: High temperature, 5 days, listed as Compound Z (basic).
[11] abbreviates: High temperature, 10 days, listed as Compound Z (basic).
Where [12] appears, read: Light exposure, 5 days, listed as Compound Z (basic).
Where [13] appears, read: Light exposure, 10 days, listed as Compound Z (basic).

PDE10, sequence (Q9Y233 whole entry): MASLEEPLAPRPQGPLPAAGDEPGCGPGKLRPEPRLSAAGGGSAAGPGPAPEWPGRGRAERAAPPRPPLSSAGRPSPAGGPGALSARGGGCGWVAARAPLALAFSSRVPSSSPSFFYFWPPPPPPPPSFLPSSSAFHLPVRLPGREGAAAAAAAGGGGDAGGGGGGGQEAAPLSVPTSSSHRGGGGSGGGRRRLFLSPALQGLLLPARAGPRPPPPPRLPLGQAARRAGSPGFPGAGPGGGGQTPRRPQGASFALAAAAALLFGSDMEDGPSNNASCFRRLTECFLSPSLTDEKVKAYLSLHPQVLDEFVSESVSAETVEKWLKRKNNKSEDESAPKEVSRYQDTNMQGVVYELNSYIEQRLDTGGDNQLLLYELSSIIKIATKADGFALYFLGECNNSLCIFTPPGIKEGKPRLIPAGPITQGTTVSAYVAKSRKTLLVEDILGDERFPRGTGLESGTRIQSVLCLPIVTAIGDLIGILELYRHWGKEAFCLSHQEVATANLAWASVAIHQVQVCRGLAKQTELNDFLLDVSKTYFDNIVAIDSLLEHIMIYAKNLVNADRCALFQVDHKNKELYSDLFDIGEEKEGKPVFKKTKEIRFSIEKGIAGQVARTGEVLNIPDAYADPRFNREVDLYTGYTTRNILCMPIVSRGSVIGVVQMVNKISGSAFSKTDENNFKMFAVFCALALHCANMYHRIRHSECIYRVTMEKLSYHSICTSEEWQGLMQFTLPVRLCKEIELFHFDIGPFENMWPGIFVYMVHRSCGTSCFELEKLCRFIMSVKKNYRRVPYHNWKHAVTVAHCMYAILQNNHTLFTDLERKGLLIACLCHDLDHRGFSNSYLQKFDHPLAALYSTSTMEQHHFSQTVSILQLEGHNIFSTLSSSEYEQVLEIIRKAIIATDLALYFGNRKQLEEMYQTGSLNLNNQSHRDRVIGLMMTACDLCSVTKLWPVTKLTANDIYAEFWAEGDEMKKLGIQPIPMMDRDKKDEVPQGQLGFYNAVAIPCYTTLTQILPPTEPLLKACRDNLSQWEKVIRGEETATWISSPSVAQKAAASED

`CCCOc1ccc(S(=O)(=O)N(C)CCN2CCCC2)cc1-c1nc2c(CCC)nn(C)c2c(=O)[nH]1` (as salt: maleate) [Maleate of compound Z, 1-methyl-5-{2-propoxy-5-[[1-methyl-1-(2-pyrrolidin-1-yl)ethyl]aminosulfonyl]phenyl}-3-propyl-1,6-dihydro-7H-pyrazolo[4,3-D]pyrimidin-7-one maleate] gave a melting point of 162.5 to 163.3 °C.
As to `CCCOc1ccc(S(=O)(=O)N(C)CCN2CCCC2)cc1-c1nc2c(CCC)nn(C)c2c(=O)[nH]1` [Compound Z, 1-methyl-5-{2-propoxy-5-[[1-methyl-1-(2-pyrrolidin-1-yl)ethyl]aminosulfonyl]phenyl}-3-propyl-1,6-dihydro-7H-pyrazolo[4,3-d]pyrimidin-7-one], the Characters entry in data set [1] is given as “white solid”. In addition, the Odor entry in data set [1] and in [1] (listed as compound Z) was “pungent odor” throughout. Moreover, the “Moisture weight gain (%)” value in data set [2] (listed as Basic compound Z) is reported as 0.39%. Also, in [3] (listed as basic compound Z, 10 mg/kg), the “ICP/BP increasing rate (%)” value was 72.22 ± 19.28 %. Further, the trait entry is reported as “white” in data set [4] (0 day); “white” in data set [4] (High humidity, 5 days); “white” in data set [4] (High humidity, 10 days); “pale yellow” in data set [4] (setting [10]); “yellow” in data set [4] (setting [11]); “pale yellow” in [4] (setting [12]). Further, in data set [4] (setting [13]), the trait entry is “pale yellow”. The purity in data set [4] (0 day, listed as Compound Z (basic)) worked out at 98.25%; in data set [4] (High humidity, 5 days, listed as Compound Z (basic)) it was 98.02%; in data set [4] (High humidity, 10 days, listed as Compound Z (basic)), 98.20%; in [4] (setting [10]), 94.70%; in data set [4] (setting [11]), 94.55%; in data set [4] (setting [12]), 72.49%. This molecule returned a purity in [4] (setting [13]) of 55.88%. For the same molecule, the “chemical stability (in words)” value in data set [4] (light exposure) is “poor chemical stability”; in [4] (light exposure, listed as basic compound Z), “poor stability”. In [4] (light exposure, after 10 days), the degradation is reported as about 50%. In addition, the “Solubility, Pure water (pH 6.1)” value in [5] (Pure water (pH 6.1), listed as Compound Z (basic)) is on record as “insoluble”. Further, in data set [5] (hydrochloric acid solution (pH 1.0), listed as Compound Z (basic)), the “Solubility, hydrochloric acid solution (pH 1.0)” value is over 21 mg/ml. Further, the “solubility (in words)” value in data set [5] was “poor water-solubility”; in data set [5] (listed as basic compound Z), “significantly less”. Moreover, the “Solubility, buffer solution (pH 6.86)” value in [5] (mixed phosphate buffer solution (pH 6.86), listed as Compound Z (basic)) is recorded as “insoluble”. Moreover, the solubility in data set [5] (standard potassium hydrogen phthalate buffer solution, pH 4, aqueous buffer, potassium hydrogen phthalate buffer solution (pH 4.0), read-out: Solubility, buffer solution (pH 4.0)) is over 5.88 mg/mL.
Consider `CCCc1nn(C)c2c(=O)[nH]c(-c3cc(S(=O)(=O)N4CCN(C)CC4)ccc3OCC)nc12` [Sildenafil, reference compound], for which the pIC50 is 5.23 on PDE4, 4.33 at PDE7, under 4.00 against PDE8 and 6.34 on PDE1. In [3], the “ICP/BP increasing rate (%)” value worked out at 73.10 ± 36.24 %.
For the molecule “1-methyl-5-{2-propoxy-5-[[1-methyl-1-(2-pyrrolidin-1-yl)ethyl]aminosulfonyl]phenyl}-3-propyl-1,6-dihydro-7H-pyrazolo[4,3-D]pyrimidin-7-one maleate”, the “hygroscopicity (in words)” value in data set [2] is “low moisture absorption; also recorded: no hygroscopicity”.
Turning to `CCCOc1ccc(S(=O)(=O)N(C)CCN2CCCC2)cc1-c1nc2c(CCC)nn(C)c2c(=O)[nH]1` [Maleate of compound Z, 1-methyl-5-{2-propoxy-5-[[1-methyl-1-(2-pyrrolidin-1-yl)ethyl]aminosulfonyl]phenyl}-3-propyl-1,6-dihydro-7H-pyrazolo[4,3-D]pyrimidin-7-one maleate], the Characters entry in [1] is recorded as “white solid”. The Odor result in data set [1] is given as “no bad smell”. Besides, the pIC50 against PDE9 (PDE9) is under 4.00; on PDE4 it was 5.39; on PDE6 (PDE6), 7.34; against PDE3 (PDE3), 4.66; on PDE7, under 4.00; at PDE8, under 4.00. The pIC50 at PDE2 (PDE2) is under 4.00; at PDE5 (PDE5) it was 8.64; against PDE1 it was 6.34; on PDE10 (PDE10) it was under 4.00; against PDE11 (PDE11), 5.22. Besides, the “IC50(PDEs)/IC50(PDE5)” value against PDE9 (PDE9 vs PDE5) is over 10000; on PDE4 (PDE4 vs PDE5), 1785; against PDE6 (PDE6 vs PDE5), 20; against PDE3 (PDE3 vs PDE5), 9649; against PDE7 (PDE7 vs PDE5), over 10000; against PDE8 (PDE8 vs PDE5) it was over 10000. Moreover, the “IC50(PDEs)/IC50(PDE5)” value is over 10000 against PDE2 (PDE2 vs PDE5), 203 against PDE1 (PDE1 vs PDE5), over 10000 on PDE10 (PDE10 vs PDE5) and 2671 against PDE11 (PDE11 vs PDE5). The mean aortic pressure entry in data set [6] is listed as “significantly reduce”. In [6], the “mean pulmonary artery pressure” value is “significantly reduce”. In [6], the “selectivity for the reduction of pulmonary artery pressure” value is given as “strong selectivity”. Further, the “pulmonary arterial pressure compared with the model group” value in data set [7] is “significantly reduce”. In addition, the “pulmonary arterial pressure compared with the positive control group” value in data set [7] is given as “no significant difference”. For the same molecule, the “activity and selectivity for PDE5 enzyme (in words)” value on PDE5 (in vitro enzyme inhibitors screening test) is “high activity and selectivity”. In [2], the “hygroscopicity (in words)” value is “minimal hygroscopicity”. In addition, the “Moisture weight gain (%)” value in data set [2] is on record as 1.56%. For the same molecule, the “ICP/BP increasing rate (%)” value in data set [3] (10 mg/kg) came out at 80.99 ± 17.01 %. In addition, the “ICP value (cavernous peak pressure)” value in data set [8] is reported as “significantly increased”. In addition, the “ICP/BP values (cavernous peak pressure/carotid arterial blood pressure)” value in data set [8] is “significantly increased”. In addition, the purity in data set [4] (0 day) is recorded as 99.79%; in data set [4] (High humidity, 5 days) it was 99.79%; in [4] (High humidity, 10 days), 99.80%; in data set [4] (High temperature, 5 days), 99.69%; in [4] (High temperature, 10 days) it was 99.76%; in data set [4] (Light exposure, 5 days), 99.65%. The molecule further yielded a purity in [4] (Light exposure, 10 days) of 99.68%. The trait entry in [4] (0 day) was “white”; in [4] (High humidity, 5 days), “white”; in data set [4] (High humidity, 10 days) it was “white”; in [4] (High temperature, 5 days), “white”; in [4] (High temperature, 10 days), “white”; in data set [4] (Light exposure, 5 days), “white”. Further, the trait result in data set [4] (Light exposure, 10 days) is recorded as “white”. The “chemical stability (in words)” value in data set [4] (light exposure) is on record as “stable”. Besides, in data set [9], the component result is “constant”. For the same molecule, the crystal water entry in data set [9] is recorded as “no”. Also, in [9], the stability entry is given as “stable”. The static entry in data set [9] is on record as “no”. The solubility was over 42 mg/mL in data set [5] (hydrochloric acid solution, pH 1, simulated gastric fluid, hydrochloric acid solution (pH 1.0), read-out: Solubility, hydrochloric acid solution (pH 1.0)); over 19.8 mg/mL in [5] (mixed phosphate buffer solution, pH 6.86, aqueous buffer, mixed phosphate buffer solution (pH 6.86), read-out: Solubility, buffer solution (pH 6.86)); over 11 mg/mL in [5] (pure water, pH 6.1, water, Pure water (pH 6.1), read-out: Solubility, Pure water (pH 6.1)).
